In patent US9187472B2 (AbbVie Inc., priority 2012, dated 2015):

system: PC3 cells; test: NAMPT Cell Proliferation Assay; format: cell-based; conditions: Homo sapiens, PC-3, 120 h, 5 days incubation, cell viability by Cell Titer Glo
Protocol: NAMPT Cell Proliferation Assay
PC3 cells were seeded in 96-well black plates (Corning #3904) at 500 cells/well in 90 μl of RPMI media containing 10% heat-inactivated FBS and incubated overnight at 37° C. and 5% CO2 to allow cells to attach to wells. The following day, test compounds were serially diluted in neat DMSO to 1000× final concentrations prior to dilution with RPMI media to 10× and 1% DMSO. Ten μL of the 10× compounds were then transferred to wells containing cells to produce a dose response of 10-fold dilutions from 10 μM to 1×10^−5 μM. Cells were incubated for 5 days at 37° C. and 5% CO2, then cell viability was measured using Cell Titer Glo reagent (Promega #G7571). Percent inhibition values were calculated and fitted to a sigmoidal dose response curves using Assay Explorer software to determine IC50s.

| SMILES | IC50 |
| --- | --- |
| CC(C)Cn1nccc1-c1ccc(C(=O)NCc2ccn3ccnc3c2)s1 [Example 899, N-(imidazo[1,2-a]pyridin-7-ylmethyl)-5-[1-(2-methylpropyl)-1H-pyrazol-5-yl]thiophene-2-carboxamide] | 181 nM |
| CC(C)(C)OC(=O)N1CCC(c2ccc(NC(=O)Cc3ccn4ccnc4c3)cc2)CC1 [Example 900, tert-butyl 4-{4-[(imidazo[1,2-a]pyridin-7-ylacetyl)amino]phenyl}piperidine-1-carboxylate] | 17.4 nM |
| O=C(CC1CCCC1)Nc1ccc(C(=O)NCc2cn3c(Cl)cnc3cn2)cc1 [Example 901, N-[(3-chloroimidazo[1,2-a]pyrazin-6-yl)methyl]-4-[(cyclopentylacetyl)amino]benzamide] | 865 nM |
| O=C(Cc1ccn2ccnc2c1)Nc1ccc(C2CCN(C(=O)c3ccc(F)cc3F)CC2)cc1 [Example 902, N-{4-[1-(2,4-difluorobenzoyl)piperidin-4-yl]phenyl}-2-(imidazo[1,2-a]pyridin-7-yl)acetamide] | 10.8 nM |
| CC(C)C(=O)N1CCC(c2ccc(NC(=O)Cc3ccn4ccnc4c3)cc2)CC1 [Example 903, 2-(imidazo[1,2-a]pyridin-7-yl)-N-{4-[1-(2-methylpropanoyl)piperidin-4-yl]phenyl}acetamide] | 35.2 nM |
| CC(C)C(=O)N1CCC(c2ccc(NC(=O)NCc3ccn4c(Cl)cnc4c3)cc2)CC1 [Example 904, 1-[(3-chloroimidazo[1,2-a]pyridin-7-yl)methyl]-3-{4-[1-(2-methylpropanoyl)piperidin-4-yl]phenyl}urea] | 282 nM |
| O=C(Cc1ccn2ccnc2c1)Nc1ccc(C2CCN(C(=O)c3ccccc3F)CC2)cc1 [Example 905, N-{4-[1-(2-fluorobenzoyl)piperidin-4-yl]phenyl}-2-(imidazo[1,2-a]pyridin-7-yl)acetamide] | 0.994 nM |
| CC(C)Cc1cc(-c2ccc(C(=O)NCc3ccn4ccnc4c3)s2)n(C)n1 [Example 906, N-(imidazo[1,2-a]pyridin-7-ylmethyl)-5-[1-methyl-3-(2-methylpropyl)-1H-pyrazol-5-yl]thiophene-2-carboxamide] | 4.17 nM |
| CC(C)Cc1cc(-c2ccc(C(=O)NCc3ccn4ccnc4c3)s2)n(Cc2ccccc2)n1 [Example 907, 5-[1-benzyl-3-(2-methylpropyl)-1H-pyrazol-5-yl]-N-(imidazo[1,2-a]pyridin-7-ylmethyl)thiophene-2-carboxamide] | 7.09 nM |
| O=C(CC1CCCC1)Nc1ccc(C(=O)NCc2cn3ccnc3cn2)c(F)c1 [Example 908, 4-[(cyclopentylacetyl)amino]-2-fluoro-N-(imidazo[1,2-a]pyrazin-6-ylmethyl)benzamide] | 11.2 nM |
| O=C(NCc1ccn2ccnc2c1)c1ccc(C(=O)NCc2cc(F)ccc2F)cc1 [Example 909, N-(2,5-difluorobenzyl)-N′-(imidazo[1,2-a]pyridin-7-ylmethyl)benzene-1,4-dicarboxamide] | 7210 nM |
| CC(C)C1CCCN1C(=O)c1ccc(C(=O)NCc2ccn3ccnc3c2)cc1 (stereo not drawn) [Example 910, N-(imidazo[1,2-a]pyridin-7-ylmethyl)-4-{[2-(propan-2-yl)pyrrolidin-1-yl]carbonyl}benzamide] | > 10000 nM |
| CC(C)(C)Cc1nnc(-c2ccc(NC(=O)Cc3ccn4ccnc4c3)cc2)o1 [Example 911, N-{4-[5-(2,2-dimethylpropyl)-1,3,4-oxadiazol-2-yl]phenyl}-2-(imidazo[1,2-a]pyridin-7-yl)acetamide] | 42.5 nM |
| CC(C)(C)OC(=O)N1CCC(c2ccc(NC(=O)NCc3ccn4ccnc4c3)c(F)c2)CC1 [Example 912, tert-butyl 4-(3-fluoro-4-{[(imidazo[1,2-a]pyridin-7-ylmethyl)carbamoyl]amino}phenyl)piperidine-1-carboxylate] | 8.72 nM |
| O=C(NCc1ccn2ccnc2c1)c1ccc(C2CCN(C(=O)c3cccnc3Cl)CC2)cc1 [Example 913, 4-{1-[(2-chloropyridin-3-yl)carbonyl]piperidin-4-yl}-N-(imidazo[1,2-a]pyridin-7-ylmethyl)benzamide] | 14.4 nM |
| CC(C)=CC(=O)N1CCC(c2ccc(C(=O)NCc3ccn4ccnc4c3)cc2)CC1 [Example 914, N-(imidazo[1,2-a]pyridin-7-ylmethyl)-4-[1-(3-methylbut-2-enoyl)piperidin-4-yl]benzamide] | 77.2 nM |
| COc1ccc(C(=O)N2CCC(c3ccc(C(=O)NCc4ccn5ccnc5c4)cc3)CC2)cc1F [Example 915, 4-[1-(3-fluoro-4-methoxybenzoyl)piperidin-4-yl]-N-(imidazo[1,2-a]pyridin-7-ylmethyl)benzamide] | 174 nM |
| CC1=C(C(=O)N2CCC(c3ccc(C(=O)NCc4ccn5ccnc5c4)cc3)CC2)CCC1 [Example 916, N-(imidazo[1,2-a]pyridin-7-ylmethyl)-4-{1-[(2-methylcyclopent-1-en-1-yl)carbonyl]piperidin-4-yl}benzamide] | 6.73 nM |
| CCC(CC)C(=O)N1CCC(c2ccc(C(=O)NCc3ccn4ccnc4c3)cc2)CC1 [Example 917, 4-[1-(2-ethylbutanoyl)piperidin-4-yl]-N-(imidazo[1,2-a]pyridin-7-ylmethyl)benzamide] | 6.79 nM |
| O=C(NCc1ccn2ccnc2c1)c1ccc(C2CCN(C(=O)COc3ccc(F)cc3)CC2)cc1 [Example 918, 4-{1-[(4-fluorophenoxy)acetyl]piperidin-4-yl}-N-(imidazo[1,2-a]pyridin-7-ylmethyl)benzamide] | 233 nM |
| COc1cc(OC)cc(C(=O)N2CCC(c3ccc(C(=O)NCc4ccn5ccnc5c4)cc3)CC2)c1 [Example 919, 4-[1-(3,5-dimethoxybenzoyl)piperidin-4-yl]-N-(imidazo[1,2-a]pyridin-7-ylmethyl)benzamide] | 101 nM |
| O=C(NCc1ccn2ccnc2c1)c1ccc(C2CCN(C(=O)C3CC=CCC3)CC2)cc1 (stereo not drawn) [Example 920, 4-[1-(cyclohex-3-en-1-ylcarbonyl)piperidin-4-yl]-N-(imidazo[1,2-a]pyridin-7-ylmethyl)benzamide] | 7.94 nM |
| COc1ccccc1CC(=O)N1CCC(c2ccc(C(=O)NCc3ccn4ccnc4c3)cc2)CC1 [Example 921, N-(imidazo[1,2-a]pyridin-7-ylmethyl)-4-{1-[(2-methoxyphenyl)acetyl]piperidin-4-yl}benzamide] | 157 nM |
| O=C(NCc1ccn2ccnc2c1)c1ccc(C2CCN(C(=O)C(CO)c3ccccc3)CC2)cc1 (stereo not drawn) [Example 922, 4-[1-(3-hydroxy-2-phenylpropanoyl)piperidin-4-yl]-N-(imidazo[1,2-a]pyridin-7-ylmethyl)benzamide] | 9.95 nM |
| Cc1cccc(C(=O)N2CCC(c3ccc(C(=O)NCc4ccn5ccnc5c4)cc3)CC2)c1 [Example 923, N-(imidazo[1,2-a]pyridin-7-ylmethyl)-4-[1-(3-methylbenzoyl)piperidin-4-yl]benzamide] | 4.58 nM |
| CC(=O)c1ccccc1C(=O)N1CCC(c2ccc(C(=O)NCc3ccn4ccnc4c3)cc2)CC1 [Example 924, 4-[1-(2-acetylbenzoyl)piperidin-4-yl]-N-(imidazo[1,2-a]pyridin-7-ylmethyl)benzamide] | 18 nM |
| COCc1ccccc1C(=O)N1CCC(c2ccc(C(=O)NCc3ccn4ccnc4c3)cc2)CC1 [Example 925, N-(imidazo[1,2-a]pyridin-7-ylmethyl)-4-{1-[2-(methoxymethyl)benzoyl]piperidin-4-yl}benzamide] | 2.06 nM |
